From US20260035339A1, “TETRAHYDRONAPHTHALENE DERIVATIVE” (ATRANSEN PHARMA LTD., priority 2022, published 2026)

Assays:
[1] = test system: Mouse colorectal cancer-derived CT26 cells; experiment: Cell proliferation inhibitory effect using mouse colorectal cancer cells (CCK-8 assay); format: cell-based; details: 72 hours compound treatment, read-out: Evaluation of IC50 (proliferation inhibition rate of 50%)
In short: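 Cells seeded at 1000 per well in RPMI 1640 with 10% FBS; after 24 h medium replaced with compound at 0.01-30 μM. Viable cells counted by CCK-8 after 72 h of treatment, and IC50 taken as the concentration giving 50% proliferation inhibition relative to untreated control.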

human LAT2 = target: T1, human LAT2 (Homo sapiens, UniProt Q9UHI5); experiment: [14C]L-alanine uptake inhibition test using human-LAT2 stably expressing HEK293 cell line; format: cell-based
T1 construct: having full-length cDNA of human LAT1 or LAT2 inserted under a promoter of CMV; expressed in transfected cells
T1 sequence (Q9UHI5 1-535): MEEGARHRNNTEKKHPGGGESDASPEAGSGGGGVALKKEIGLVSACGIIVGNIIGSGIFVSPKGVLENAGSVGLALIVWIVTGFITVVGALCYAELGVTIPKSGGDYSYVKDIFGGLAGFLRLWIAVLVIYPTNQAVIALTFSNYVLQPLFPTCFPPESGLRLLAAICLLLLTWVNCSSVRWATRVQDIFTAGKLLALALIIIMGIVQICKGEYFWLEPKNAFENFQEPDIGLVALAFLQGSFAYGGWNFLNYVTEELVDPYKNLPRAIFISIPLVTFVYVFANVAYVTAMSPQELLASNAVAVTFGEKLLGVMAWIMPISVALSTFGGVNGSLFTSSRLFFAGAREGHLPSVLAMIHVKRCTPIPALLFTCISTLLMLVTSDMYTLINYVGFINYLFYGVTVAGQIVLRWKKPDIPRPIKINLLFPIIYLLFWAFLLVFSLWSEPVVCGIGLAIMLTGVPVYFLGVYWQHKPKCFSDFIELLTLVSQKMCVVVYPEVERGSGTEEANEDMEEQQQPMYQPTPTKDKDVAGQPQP
T1 sequence (P08195 1-529 partner): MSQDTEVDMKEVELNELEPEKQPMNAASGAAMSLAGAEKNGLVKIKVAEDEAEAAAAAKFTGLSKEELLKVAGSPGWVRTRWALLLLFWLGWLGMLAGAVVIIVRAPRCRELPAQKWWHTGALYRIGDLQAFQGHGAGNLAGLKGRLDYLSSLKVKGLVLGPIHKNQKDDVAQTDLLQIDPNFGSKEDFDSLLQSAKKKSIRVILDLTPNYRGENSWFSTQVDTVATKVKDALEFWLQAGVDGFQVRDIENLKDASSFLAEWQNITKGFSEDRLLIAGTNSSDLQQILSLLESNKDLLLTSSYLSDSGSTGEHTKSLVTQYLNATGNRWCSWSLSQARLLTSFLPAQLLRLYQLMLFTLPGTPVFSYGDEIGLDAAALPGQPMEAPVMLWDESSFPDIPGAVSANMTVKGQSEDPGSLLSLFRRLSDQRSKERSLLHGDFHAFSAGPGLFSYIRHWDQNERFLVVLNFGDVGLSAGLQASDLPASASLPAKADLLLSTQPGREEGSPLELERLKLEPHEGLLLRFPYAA
Description: HEK293 cells stably expressing human LAT1 and LAT2 were produced, respectively.
A shuttle vector DNA (LAT1: pcDNA3.1(+) -hLAT1, LAT2: pcDNA3.1(+) -hLAT2; expression vector pcDNA3.1 (+) was produced by Invitrogen Corp.) having ampicillin and neomycin resistance markers and having full-length cDNA of human LAT1 or LAT2 inserted under a promoter of CMV (cytomegalovirus) was constructed. This vector was transfected into the HEK293 cells by a method using Lipofectamine (registered trademark) 2000 (Invitrogen Corp.) according to the manufacturer's instructions. […]
[^14C]L-alanine uptake inhibition using the compound of Example 1-1 was performed using the human-LAT2 stably expressing HEK293 cell line. In the same manner as in the [^14C]L-leucine uptake inhibition experiment in the human-LAT1 stably expressing HEK293 cell line, the human-LAT2 stably expressing HEK293 cell line was seeded in a 24-well plate at 1×10^5 Cell/Well, and after 48 hours, 1 μM of [^14C]L-alanine was taken up in Na^+-free HBSS in the presence of the compound (0.1, 1.0, 10, 0 μM in each case), which is a racemic form, of Example 1-1 for 1 minute, then the uptake amount of [^14C]L-alanine and the protein amount of the cell lysate were measured, and the uptake amount of [^14C]L-alanine per 1 mg of protein in the cell per minute was determined.

Q: With `NC1(C(=O)O)CCc2ccc(Oc3ccc4ccccc4c3)cc2C1` (stereo not drawn) [Example 1-1, 2-carboxy-7-(naphthalene-2-yloxy)-1,2,3,4-tetrahydronaphthalene-2-aminium chloride] as the compound, how does the IC50 [1] read?
A: Its IC50 is ≤ 0.9 µM.

Q: What about the “inhibitory action on LAT2 alanine uptake compared with LAT1 leucine uptake inhibition” value (human LAT2; LAT2 versus LAT1 stably expressing HEK293 cell line) of the same compound?
A: Its value is “weaker inhibitory action”.

Q: And the IC50 (human LAT2; racemic form, 1 μM [14C]L-alanine, 1 minute, Na+-free HBSS, read-out: 50% suppression concentration, [14C]L-alanine uptake)?
A: Its IC50 is ~1 µM.
